The nature of series [1]: Experimentally obtained drug solubilities in gels. Type of series: physicochemical. The source says: Experimentally obtained drug solubilities are given in the table (all percentages are weight %).
The nature of series [2]: Solubility and integrity of CLA-1 and CLA-8 in SuBen and LOIB gels (Example 22). Type of series: physicochemical. The conditions noted are these: weight percentage. The method, then: HPLC assay: Samples were analyzed using a Shimadzu Nexera-i instrument. […] Chromatographic separation was achieved using a gradient of 40 to 100% phase B in 10 min. Ultraviolet detection at 280 nm was used to identify the CT contrast agents. Gel samples were prepared by dilution of 50 μL gel in 1 mL MeCN, which were then diluted 10-fold in MeCN.

Series [3] in a line: In vitro release of Gardiquimod and Resiquimod from SuBen gels with different co-solvents, HPLC (Example 28). Type of series: physicochemical. The conditions noted are these: 49 days; for in vitro release of Gardiquimod: 1.2 mg/g, PBS 37° C. The procedure: SuBen:GTO:EtOH (60:25:15 (% w/w)) and SuBen:Lipiodol:EtOH (60:25:15 (% w/w)) were prepared by simple mixing and sonication (80° C., 90-120 min) as described in example 19. […] SuBen:GTO:EtOH:PLA (60:25:15:0.5 (% w/w)), SuBen:Ethyl-palmitate:EtOH (60:25:15 (% w/w)), and SuBen:Ethyl-oleate:EtOH (60:25:15 (% w/w)) were prepared by simple mixing and sonication (80° C., 90-120 min) as described in example 19. […] The vials are closed with lids and are incubated at 37° C. At each sampling point, take 1 mL of buffer and place it inside an Eppendorf tube. Then add 1 mL of fresh buffer to replace the taken sample. The samples are analyzed by HPLC. […] For both compounds, the flowrate was 1 mL/min and the column temperature was 40° C.

Series [4] can be described thus: In vitro release of RepSox and Galunisertib from LOIB based gels into PBS (Example 14). Particulars: for cumulative release: after 14 days, 8 mg/gram in 82.5 (% w/w) LOIB gel, 100 μL in 2 ml PBS. The method, then:
Following, 100 μL of each gel were injected in duplicates into 2 ml of PBS.

The nature of series [5]: Co-solubilization of R848 and RepSox in LOIB gel (Example 15). Format: physicochemical. Particulars: with 2.4 mg R848. The method, then: The mixture was solubilized using a magnetic stirring for 2 hours at 40-50° C. under continuous visual inspection.
Series [6] is described as follows: In vivo release of TGFb inhibitors from intratumoral gel depots (Example 32). The conditions noted are these: 8 mg/g, 50 μL intratumoral, CT26 tumors, 7 days.
Description: Animal handling: For each formulation 50 μL of gel was injected intratumorally in female Balb/c mice with CT26 tumors (Initial tumor volume of approximately 200 mm^3). The mice were sacrificed at different time points and gel samples were collected. The gels were stored at 4° C. until analysis. For each gel, four mice were sacrificed at each timepoint.
Samples were heated to 50° C. and stirred at 600 rpm to promote dissolution. The samples were subsequently filtered through 0.45 μm pore, nylon syringe filters.
HPLC method: Samples were analyzed on a Shimadzu Nexera-i HPLC. […] The solvent system consisted of mobile phase A (5% MeCN, 0.1% TFA in water) and mobile phase B (0.1% TFA in MeCN). Chromatographic separation was achieved using an optimized gradient.
Series [7] is described as follows: Tested solubility of APIs in carbohydrate ester gels (Example 21). Particulars: in the gel formulations listed for each API in Table 8; maximal solubility may be higher than tested.
Description: Compositions are given in weight percent (or weight ratio) and each compound is weighed into one vial. The mixture is placed in an ultrasonication bath at 70-80° C. for 1-2 hours and occasionally vortexed to generate homogenous solutions that is subsequently stored at 4° C. until further use. Afterwards, all active pharmaceutical ingredients (APIs) are incorporated into the gels proportionally by adding gel on top of freeze-dried APIs or combinations of freeze-dried APIs. The gel is subjected to magnetic stirring at 40-50° C. until the API or combination of APIs is completely dissolved. The gel-API mixture is transferred and stored in sealed vials at room temperature or at 4° C. Certain gel-API mixtures may be stored at −20° C.
Series [8] in a line: In vitro release of DOX base from SuBen and LOIB gels, fluorescence (Example 33). Particulars: 7 days at 37° C. Type of series: physicochemical. The method, then:
The vials were incubated at 37° C. After 7 days, 1 mL of PBS was taken and analysed by fluorescence spectroscopy.
Fluorescence spectroscopy: Fluorescence measurements were taken by a Tecan fluorescence microplate reader using 96-well, transparent Nunc plates. Sample volume was 200 μL.

Where [9] appears, read: gel composition e.g LOIB 82.5%, SuBen 60%.

Data on 10 compounds can be found in patent US20220339285A1, “DISSACHARIDE FORMULATIONS FOR CONTROLLED DRUG RELEASE” (TECHNICAL UNIVERSITY OF DENMARK, priority 2019, published 2022).

In series [1] (gel composition e.g SuBen 60%), `CC(C)Cn1cnc2c(N)nc3ccccc3c21` [Imiquimod] gave a Solubility greater than 4.8 mg/g gel.

For the compound `O=C(OCC1OC(OC(=O)c2ccc(I)cc2)C(OC(=O)c2ccc(I)cc2)[C@@H](OC(=O)c2ccc(I)cc2)[C@@H]1O[C@@H]1OC(COC(=O)c2ccc(I)cc2)[C@H](OC(=O)c2ccc(I)cc2)[C@H](OC(=O)c2ccc(I)cc2)C1OC(=O)c1ccc(I)cc1)c1ccc(I)cc1` (stereo partly drawn) [CLA-8, α,β Lactose octa para-iodobenzoate], in series [2], the “CLA-8 completely solubilized in LOIB gels” value is on record as “up to 10%” and the “CLA-8 completely solubilized in SuBen gels” value was “up to 20%”.

Take `CCNCc1nc2c(N)nc3ccccc3c2n1CC(C)(C)O` [Gardiquimod]: the Solubility in series [1] (setting [9]) was greater than 1.5 mg/g gel. In addition, the “reduction of Gardiquimod release on substitution of GTO with Lipiodol” value in series [3] is listed as 6 fold. Moreover, the “in vitro release of Gardiquimod” value in series [3] (SuBen:GTO:EtOH (60:25:15) gel) was found to be 52.5%; in series [3] (SuBen:Lipiodol:EtOH (60:25:15) gel) it was 8.4%.

Consider `Cc1cccc(-c2[nH]ncc2-c2ccc3ncccc3n2)n1` [RepSox], for which, in series [1] (setting [9]), the Solubility was greater than 8 mg/g gel. Also, the cumulative release entry in series [4] was “around 40%”. In series [5], the “dissolved together with R848 in LOIB:GTO:EtOH (82.5:7.5:10) gel” value came to 8 mg/g. Besides, in series [6], the “in vivo release from gel depot (ranking)” value was “fastest release”.

For the compound `Fc1ccc(Cl)cc1-c1nc(Nc2ccncc2)c2nccnc2n1` [SD-208], the Solubility in series [1] (gel composition e.g SuBen 60%) and in series [1] (gel composition e.g SuBen:LOIB 35%/35%) was greater than 8 mg/g gel throughout.

`COc1ccc(CNC(=O)Nc2ncc([N+](=O)[O-])s2)cc1` [AR-A014418]: in series [7], the “Tested solubility in gels” value is 1 mg/g gel.

Regarding `Cc1cccc(-c2nn3c(c2-c2ccnc4ccc(C(N)=O)cc24)CCC3)n1` [Galunisertib], in series [1] (setting [9]), the Solubility was greater than 8 mg/g gel. For the same compound, in series [4], the “solubilized in LOIB-based gel formulations” value is no less than 8 mg/gram and the cumulative release was found to be 27%. Besides, in series [7], the “Tested solubility in gels” value amounted to 8 mg/g gel.

In series [1] (setting [9]), `CCOCc1nc2c(N)nc3ccccc3c2n1CC(C)(C)O` [Resiquimod (R848), Resiquimod] yielded a Solubility greater than 10 mg/g gel.

On to `COc1cccc2c1C(=O)c1c(O)c3c(c(O)c1C2=O)C[C@@](O)(C(=O)CO)C[C@@H]3O[C@H]1C[C@H](N)[C@H](O)[C@H](C)O1` [DOX base, doxorubicin], for which the “release from gels into PBS” value in series [8] is listed as “released from the gels”.

In turn, `CC1(N)CCN(c2cnc(-c3cccc(Cl)c3Cl)c(N)n2)CC1` [SHP099] came in with a Solubility in series [1] (gel composition e.g SuBen 60%) greater than 1 mg/g gel.
